Reference: article PMC7226205 (Biomolecules, 2020)

How the values were obtained:
[1] = biological target: T1, RUVBL2 (Homo sapiens, UniProt Q9Y230); test: ATP/NADH coupled ATPase assay; type: biochemical
T1 construct: recombinant from E. coli BL21(DE3) pRIL

[2] = biological target: T2, ScRvb2 (Saccharomyces cerevisiae, UniProt Q12464); test: ATP/NADH coupled ATPase assay; conditions: 10 µM protomer, pH 7.5, 37 °C
T2 construct: gene RVB2
T2 sequence (Q12464 whole entry): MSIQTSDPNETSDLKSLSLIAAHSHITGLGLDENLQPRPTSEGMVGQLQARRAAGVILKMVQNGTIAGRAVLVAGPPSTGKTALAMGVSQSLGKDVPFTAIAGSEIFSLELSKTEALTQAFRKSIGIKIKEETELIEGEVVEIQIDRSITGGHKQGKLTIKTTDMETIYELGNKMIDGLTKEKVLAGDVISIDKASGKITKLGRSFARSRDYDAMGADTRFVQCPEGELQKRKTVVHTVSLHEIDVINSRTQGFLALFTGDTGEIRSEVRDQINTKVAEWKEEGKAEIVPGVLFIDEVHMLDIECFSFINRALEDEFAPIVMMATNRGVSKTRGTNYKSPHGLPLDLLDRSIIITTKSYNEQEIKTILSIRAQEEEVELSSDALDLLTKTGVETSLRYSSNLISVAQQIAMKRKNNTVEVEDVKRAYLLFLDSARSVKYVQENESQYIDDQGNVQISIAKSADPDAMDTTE

T1 sequence (Q9Y230 whole entry): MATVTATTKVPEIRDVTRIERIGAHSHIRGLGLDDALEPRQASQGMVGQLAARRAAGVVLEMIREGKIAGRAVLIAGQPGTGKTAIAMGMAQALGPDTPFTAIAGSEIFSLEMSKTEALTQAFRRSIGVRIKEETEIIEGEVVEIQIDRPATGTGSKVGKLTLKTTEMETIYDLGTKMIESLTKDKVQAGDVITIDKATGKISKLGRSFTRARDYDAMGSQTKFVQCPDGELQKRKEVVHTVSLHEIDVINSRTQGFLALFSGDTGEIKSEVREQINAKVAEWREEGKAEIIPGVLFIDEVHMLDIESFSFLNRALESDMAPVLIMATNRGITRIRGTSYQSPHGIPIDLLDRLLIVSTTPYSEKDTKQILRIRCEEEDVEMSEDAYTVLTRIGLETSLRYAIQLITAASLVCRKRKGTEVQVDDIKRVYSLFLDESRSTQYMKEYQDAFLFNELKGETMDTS

Row | Compound | inhibition at 15 µM [1] [%] | % inhibition at 30 μM [2]
1 | CNC(=O)c1cc(Oc2ccc(NC(=O)Nc3ccc(Cl)c(C(F)(F)F)c3)c(F)c2)ccn1 [regorafenib] | ~40 | 
2 | CNC(=O)c1cc(Oc2ccc(NC(=O)Nc3ccc(Cl)c(C(F)(F)F)c3)cc2)ccn1 [sorafenib] |  | sorafenib can inhibit RUVBL2 from Saccharomyces cerevisiae (named ScRvb2) although less efficiently
